Measurements as given in paper PMC12074479, “Design, Synthesis, and Biological Evaluation of New Analogs of Aurein 1.2 Containing Non-Proteinogenic Amino Acids” (Molecules, 2025).
Values after ≈ are worked out from the molar mass of the structure shown. Like-named read-outs stand apart in the source and are kept apart here. Where a SMILES comes first, the peptide text is derived from it. Where no end group is shown, it is not given here. [ ]: non-standard residue; d: D form. Orn = NCCC[C@H](N)C(=O)O; Dap = NC[C@H](N)C(=O)O

What was measured:
[1] = test system: Bacillus subtilis NBIMCC 3562
Experimental: (§1) The antimicrobial activity of the 7 new analogs of aurein 1.2 was evaluated by determining the MIC and MBC against Gram-positive strain Bacillus subtilis 3562 and Gram-negative strain Escherichia coli K12 407. The MIC of the newly synthesized analogs was assessed by applying a broth microdilution method, whereas their MBC was determined by using a spread plate method. All experiments were performed in triplicate.
(§2) Bacillus subtilis NBIMCC 3562 and Escherichia coli NBIMCC K12 407 were used as test microorganisms and were purchased from the National Bank for Industrial Microorganisms and Cell Cultures (NBIMCC, Sofia, Bulgaria). Exponential cultures were obtained in Nutrient broth (NB, HiMedia, Mumbai, India) for B. subtilis NBIMCC 3562 and Luria-Bertani (LB, HiMedia, Mumbai, India) for E. coli NBIMCC K12 407, after cultivation in an incubator shaker ES-20/60 (Biosan, Latvia) at 30/37 °C for 24 h. Then, the turbidity of the microbial cultures was adjusted to the 0.5 McFarland standard using a Grant Bio DEN-1B Densitometer (Grant Instruments, Royston, UK).
(§3) The antimicrobial activity of the obtained aurein 1.2 analogs was evaluated using the broth microdilution method, recommended by the Clinical and Laboratory Standards Institute (CLSI), to determine the minimum inhibitory concentration (MIC) of the peptides against B. subtilis NBIMCC 3562 and E. coli NBIMCC K12 407. All peptides were previously dissolved in 10% EtOH/H2O, and their 10 mg/mL stock solutions were stored at −20 °C. Bacterial cultures, previously adjusted to 0.5 McFarland standard, were incubated in the presence of different peptide concentrations (0–320 µg/mL) in 96-well polystyrene microplates (Deltalab S.L., Barcelona, Spain) at 30/37 °C for 24 h. The lowest concentration of each peptide, which inhibited bacterial growth, was considered as MIC. In addition, a drop of 20 µL of the 24 h inhibitory concentration test samples was spotted on the corresponding solid media to determine the minimum bactericidal concentration (MBC). […] All experiments were performed in triplicate.

MDA-MB-231 = assay: cells; settings: 72 h
Experimental: (§4) The peptides were studied for antiproliferative activity with an MTT-dye reduction assay. Cell cultures were incubated with the test peptides in twofold increasing concentrations (from 2 to 500 μM) for 72 h.
(§5) The antiproliferative activity of the peptides was determined in normal epithelial cells (MCF-12F) and tumor cells (MCF-7 and MDA-MB-231) by MTT-assay. Cells were plated 1 × 10^3 cells/100 µL/well of 96-well plates and incubated in a thermostat under standard conditions for 24 h. Cells were then incubated with the tested peptide analogs for 72 h in different concentrations (from 2 to 500 µM). The optical density of the formazan was measured at λ = 540 nm using a microplate reader. Antiproliferative activity was expressed as % from negative control. […] The statistical analysis of the results was performed using one-way ANOVA followed by Bonferroni’s post hoc test by GraphPad Prism 8 software (San Diego, CA, USA).

MCF-7 = assay: cells; settings: 72 h
Experimental: as §4, §5

MCF-12F = assay: cells; settings: 72 h
Experimental: as §4, §5

in vitro = settings: mouse, Mean CC50 ± SD
Experimental: (§6) An in vitro BALB 3T3 Neutral Red Uptake assay was used to determine the cytotoxicity/phototoxicity of the peptides. Cytotoxicity of peptide analogs was calculated as a percentage relative to the negative control. […] Photo irritation factor (PIF) was used to assess the phototoxic potential of the peptide analogs. The PIF factor represents the ratio between the CC50 values of dark (non-irradiated or—Irr) and irradiated (+Irr) microplates, PIF = (CC50 − Irr)/(CC50 + Irr).
(§7) Mouse embryonic fibroblasts (BALB 3T3) were used to perform the cytotoxicity and phototoxicity tests. The tests were performed by OECD Guidelines for the Testing of Chemicals, Section 4, Test No. 432. Cells were plated at 1 × 10^4 cells/well in 96-well plates. Cells were incubated in a thermostat for 24 h. Then, the test peptides were added at various working concentrations (4–1000 μM). In the phototoxicity test, 96-well plates were irradiated with a dose of 2.4 J/cm^2 using a solar light simulator Helios-iO (SERIC Ltd., Tokyo, Japan). Cell viability was measured using the BALB 3T3 neutral red uptake test. Cytotoxicity is presented as % relative to the negative control.

BALB 3T3 cells = assay: in vitro
Experimental: as §6, §7

[2] = test system: Escherichia coli NBIMCC K12 407; settings: broth microdilution, 0–320 µg/mL, 24 h; NI = no inhibition monitored
Experimental: as §1, §2, §3

[3] = broth microdilution, 0–320 µg/mL, 24 h, NI = no inhibition monitored
[4] = read-out: Mean IC50 ± SD, MDA-MB-231, MTT
[5] = read-out: Mean IC50 ± SD, MCF-7, MTT
[6] = read-out: Mean IC50 ± SD, MCF-12F, MTT, normal cell line
[7] = +Irr, BALB 3T3 cells, irradiated 2.4 J/cm^2, NRU
[8] = −Irr, BALB 3T3 cells, non-irradiated (dark), NRU
[9] = PIF = (CC50 −Irr)/(CC50 +Irr), PIF < 2 not phototoxic, 2 < PIF < 5 possible phototoxicity, PIF > 5 phototoxic

Row | Molecule | MIC, Bacillus subtilis NBIMCC 3562 ([1]; NBIMCC 3562, 24 h) | IC50 (MDA-MB-231) | IC50 (MCF-7) | IC50 (MCF-12F) | CC50 (in vitro; +Irr) | PIF (Photo Irritation Factor) (BALB 3T3 cells) | Toxicity compared to the parent peptide aurein 1.2 (BALB 3T3 cells; BALB 3T3 cells, fold lower toxicity) | MBC, Bacillus subtilis NBIMCC 3562 ([1]; 0–320 µg/mL, NI = no inhibition monitored) | MIC, Bacillus subtilis NBIMCC 3562 [1, 3] | MIC, Escherichia coli NBIMCC K12 407 [2] | IC50 (MDA-MB-231; [4]) | IC50 (MCF-7; [5]) | IC50 (MCF-12F; [6]) | CC50 (in vitro; [7]) | CC50 (in vitro; [8]) | PIF (Photo Irritation Factor) (BALB 3T3 cells; [9])
1 | CC[C@H](C)[C@H](NC(=O)[C@H](CN)NC(=O)[C@H](CN)NC(=O)[C@@H](NC(=O)[C@@H](NC(=O)[C@H](CC(=O)O)NC(=O)[C@H](Cc1ccccc1)NC(=O)[C@H](CC(C)C)NC(=O)CN)[C@@H](C)CC)[C@@H](C)CC)C(=O)N[C@@H](C)C(=O)N[C@@H](CCC(=O)O)C(=O)N[C@@H](CO)C(=O)N[C@@H](Cc1ccccc1)C(N)=O [EH [Dap]^7,8, Gly-Leu-Phe-Asp-Ile-Ile-Dap^7-Dap^8-Ile-Ala-Glu-Ser-Phe-NH2] (H-GLFDII[Dap][Dap]IAESF-NH2) | 320 µg/mL (≈ 229 µM) | 372.2 ± 3.17 µM | 289 ± 19.8 µM | 308 ± 21.7 µM | 357.5 ± 3.03 µM | 1.01 | two to four times lower toxicity | – | – | – | – | – | – | – | – | –
2 | CC[C@H](C)[C@H](NC(=O)[C@H](CCCN)NC(=O)[C@H](CCCN)NC(=O)[C@@H](NC(=O)[C@@H](NC(=O)[C@H](CC(=O)O)NC(=O)[C@H](Cc1ccccc1)NC(=O)[C@H](CC(C)C)NC(=O)CN)[C@@H](C)CC)[C@@H](C)CC)C(=O)N[C@@H](C)C(=O)N[C@@H](CCC(=O)O)C(=O)N[C@@H](CO)C(=O)N[C@@H](Cc1ccccc1)C(N)=O [EH [Orn]^7,8, Gly-Leu-Phe-Asp-Ile-Ile-Orn^7-Orn^8-Ile-Ala-Glu-Ser-Phe-NH2] (H-GLFDII[Orn][Orn]IAESF-NH2) | – | – | – | – | – | – | – | 320 µg/mL (≈ 220 µM) | 80 µg/mL (≈ 55.1 µM) | 80 µg/mL (≈ 55.1 µM) | 123 ± 6.47 µM | 88.9 ± 3.14 µM | 112 ± 7.14 µM | 101 ± 3.7 µM | 157 ± 6.38 µM | 1.55
3 | CC[C@H](C)[C@H](NC(=O)[C@H](CCCCN)NC(=O)[C@H](CCCN)NC(=O)[C@@H](NC(=O)[C@@H](NC(=O)[C@H](CC(=O)O)NC(=O)[C@H](Cc1ccccc1)NC(=O)[C@H](CC(C)C)NC(=O)CN)[C@@H](C)CC)[C@@H](C)CC)C(=O)N[C@@H](C)C(=O)N[C@@H](CCC(=O)O)C(=O)N[C@@H](CO)C(=O)N[C@@H](Cc1ccccc1)C(N)=O [EH [Orn]^7, Gly-Leu-Phe-Asp-Ile-Ile-Orn^7-Lys-Ile-Ala-Glu-Ser-Phe-NH2] (H-GLFDII[Orn]KIAESF-NH2) | – | – | – | – | – | – | – | – | – | – | – | – | – | 102 ± 7.4 µM | 134 ± 7.4 µM | –
4 | CC[C@H](C)[C@H](NC(=O)[C@H](CCCN)NC(=O)[C@H](CCCCN)NC(=O)[C@@H](NC(=O)[C@@H](NC(=O)[C@H](CC(=O)O)NC(=O)[C@H](Cc1ccccc1)NC(=O)[C@H](CC(C)C)NC(=O)CN)[C@@H](C)CC)[C@@H](C)CC)C(=O)N[C@@H](C)C(=O)N[C@@H](CCC(=O)O)C(=O)N[C@@H](CO)C(=O)N[C@@H](Cc1ccccc1)C(N)=O [EH [Orn]^8, Gly-Leu-Phe-Asp-Ile-Ile-Lys-Orn^8-Ile-Ala-Glu-Ser-Phe-NH2] (H-GLFDIIK[Orn]IAESF-NH2) | – | – | – | – | – | – | – | – | – | – | – | – | – | 59.5 ± 5.21 µM | 75.6 ± 3.33 µM | –
5 | GLFDIIKKIAESF-NH2 [Aurein 1.2, Gly^1-Leu^2-Phe^3-Asp^4-Ile^5-Ile^6-Lys^7-Lys^8-Ile^9-Ala^10-Glu^11-Ser^12-Phe^13-NH2] | – | – | – | – | – | – | – | – | 160 µg/mL | 40 µg/mL | 70.9 ± 2.06 µM | 68.9 ± 2.12 µM | 71.4 ± 2.88 µM | 87.2 ± 1.88 µM | 87.6 ± 2.45 µM | 1
